# In publication PMC12778052 (Science Advances, 2026):
# Columns and labels:
# SCaBER cells = test: In vitro binding of [^68Ga]AJ647 to SCaBER cells; type: cell-based; conditions: 1 × 10^6 cells, ~1 μCi, 30 min, 4°C, means ± SD, n = 4
# Protocol: In vitro binding of [^68Ga]AJ647 to T24, SCaBER, RT112, UC9, UC14, and HT1376 cells was determined by incubating 1 × 10^6 cells with ~1 μCi of [^68Ga]AJ647 for 30 min at 4°C. After incubation, cells were washed three times with ice-cold PBS containing 0.1% Tween 20 and counted on an automated gamma counter. All cell radioactivity uptake studies were performed in quadruplicate for each cell line and repeated three times.
# in vivo = test: in vivo; set-up: species or system NSG mice; conditions: mouse; for tissue uptake at 2 min / tissue uptake at 0.25 h / tissue uptake at 1 h / tissue uptake at 2 h / tissue uptake at 3 h / tissue to tissue ratio at 2 min / tissue to tissue ratio at 0.25 h / tissue to tissue ratio at 1 h / tissue to tissue ratio at 2 h / tissue to tissue ratio at 3 h: NSG, iv, 1.85 MBq, total radioactivity
# Protocol: Mice were injected with cancer cells subcutaneously in 100 μl of PBS (top right flank) for all tumor models. The following cell numbers were used: HT1376 (4 million), UC9 (3 million), UC14 (3 million), RT112 (1.5 million), T24(3 million), and SCaBER (4 million). Mice with tumor volumes of 100 to 200 mm^3 were used for all experiments. A minimum of four mice were used for all biodistribution studies. A minimum of seven mice were used in PD experiment to account for greater variability. To validate imaging studies, ex vivo biodistribution studies were conducted in mice with tumors of 100 to 200 mm^3 in size. […] In all other studies, a 60-min time point was chosen. Selected tissues (blood, skin, muscle, bone, salivary glands, tumor, lungs, heart, liver, pancreas, spleen, kidneys, bladder, and testicles) were collected, weighed, and counted, and their %IA/g values were calculated as described previously ([33]). For EV PD studies, fewer organs were harvested to accommodate a higher number of mice.
smiles,measurement,setting,value
"CSCC[C@@H]1NC(=O)[C@@H]2CSCCC(=O)N3CN(CN(C3)C(=O)CCSC[C@H](NC(=O)CCOCCOCCOCCOCCOCCOCCOCCOCCOCCOCCOCCOCCNC(=O)CN3CCN(CC(=O)O)CCN(CC(=O)O)CC3)C(=O)N3CCC[C@H]3C(=O)N[C@@H](Cc3cccc4ccccc34)C(=O)N[C@@H](CC(=O)O)C(=O)N2)C(=O)CCSC[C@@H](C(N)=O)NC(=O)[C@H](Cc2c[nH]c3ccccc23)NC(=O)[C@@H]2C[C@@H](O)CN2C(=O)[C@@H]2CCCN2C(=O)[C@H]([C@@H](C)O)NC(=O)[C@H](CO)NC(=O)[C@H](Cc2c[nH]c3ccccc23)NC(=O)[C@@H](CC(=O)O)NC(=O)[C@H](CCCCNC(=N)N)NC1=O [[^68Ga]AJ647, metal not drawn]",[^68Ga]AJ647 uptake,SCaBER cells,1.6 ± 0.13 %IA
same,tissue uptake at 2 min,in vivo; Blood,35.8 ± 3.64 %ID/g
same,tissue uptake at 0.25 h,in vivo; Blood,2.94 ± 0.68 %ID/g
same,tissue uptake at 1 h,in vivo; Blood,0.84 ± 0.22 %ID/g
same,tissue uptake at 2 h,in vivo; Blood,0.28 ± 0.06 %ID/g
same,tissue uptake at 3 h,in vivo; Blood,0.32 ± 0.09 %ID/g
same,tissue uptake at 2 min,in vivo; Femur,1.88 ± 0.29 %ID/g
same,tissue uptake at 0.25 h,in vivo; Femur,1.3 ± 0.05 %ID/g
same,tissue uptake at 1 h,in vivo; Femur,0.57 ± 0.18 %ID/g
same,tissue uptake at 2 h,in vivo; Femur,0.27 ± 0.09 %ID/g
same,tissue uptake at 3 h,in vivo; Femur,0.34 ± 0.09 %ID/g
same,tissue uptake at 2 min,in vivo; Heart,11.3 ± 0.51 %ID/g
same,tissue uptake at 0.25 h,in vivo; Heart,1.15 ± 0.34 %ID/g
same,tissue uptake at 1 h,in vivo; Heart,0.43 ± 0.07 %ID/g
same,tissue uptake at 2 h,in vivo; Heart,0.19 ± 0.01 %ID/g
same,tissue uptake at 3 h,in vivo; Heart,0.22 ± 0.01 %ID/g
same,tissue uptake at 2 min,in vivo; Liver,6.45 ± 1.39 %ID/g
same,tissue uptake at 0.25 h,in vivo; Liver,1.19 ± 0.3 %ID/g
same,tissue uptake at 1 h,in vivo; Liver,0.45 ± 0.09 %ID/g
same,tissue uptake at 2 h,in vivo; Liver,0.21 ± 0.07 %ID/g
same,tissue uptake at 3 h,in vivo; Liver,0.23 ± 0.02 %ID/g
same,tissue uptake at 2 min,in vivo; Lung,24.2 ± 7.05 %ID/g
same,tissue uptake at 0.25 h,in vivo; Lung,3.66 ± 0.5 %ID/g
same,tissue uptake at 1 h,in vivo; Lung,1.66 ± 0.25 %ID/g
same,tissue uptake at 2 h,in vivo; Lung,0.81 ± 0.28 %ID/g
same,tissue uptake at 3 h,in vivo; Lung,0.47 ± 0.2 %ID/g
same,tissue uptake at 2 min,in vivo; Muscle,0.96 ± 0.19 %ID/g
same,tissue uptake at 0.25 h,in vivo; Muscle,0.93 ± 0.36 %ID/g
same,tissue uptake at 1 h,in vivo; Muscle,0.38 ± 0.06 %ID/g
same,tissue uptake at 2 h,in vivo; Muscle,0.2 ± 0.11 %ID/g
same,tissue uptake at 3 h,in vivo; Muscle,0.18 ± 0.05 %ID/g
same,tissue uptake at 2 min,in vivo; Salivary glands,6.3 ± 1.24 %ID/g
same,tissue uptake at 0.25 h,in vivo; Salivary glands,4.74 ± 0.94 %ID/g
same,tissue uptake at 1 h,in vivo; Salivary glands,1.48 ± 0.18 %ID/g
same,tissue uptake at 2 h,in vivo; Salivary glands,0.67 ± 0.09 %ID/g
same,tissue uptake at 3 h,in vivo; Salivary glands,0.69 ± 0.07 %ID/g
same,tissue uptake at 2 min,in vivo; Skin,1.13 ± 0.16 %ID/g
same,tissue uptake at 0.25 h,in vivo; Skin,2.74 ± 0.5 %ID/g
same,tissue uptake at 1 h,in vivo; Skin,1.45 ± 0.33 %ID/g
same,tissue uptake at 2 h,in vivo; Skin,0.82 ± 0.22 %ID/g
same,tissue uptake at 3 h,in vivo; Skin,0.66 ± 0.12 %ID/g
same,tissue uptake at 2 min,in vivo; Small intestine,0.85 ± 0.23 %ID/g
same,tissue uptake at 0.25 h,in vivo; Small intestine,0.68 ± 0.23 %ID/g
same,tissue uptake at 1 h,in vivo; Small intestine,0.52 ± 0.17 %ID/g
same,tissue uptake at 2 h,in vivo; Small intestine,0.16 ± 0.02 %ID/g
same,tissue uptake at 2 min,in vivo; Stomach,0.34 ± 0.11 %ID/g
same,tissue uptake at 0.25 h,in vivo; Stomach,0.49 ± 0.36 %ID/g
same,tissue uptake at 2 h,in vivo; Stomach,0.13 ± 0.04 %ID/g
same,tissue uptake at 2 min,in vivo; Thymus,15.7 ± 5.42 %ID/g
same,tissue uptake at 0.25 h,in vivo; Thymus,2.38 ± 0.7 %ID/g
same,tissue uptake at 1 h,in vivo; Thymus,0.71 ± 0.3 %ID/g
same,tissue uptake at 2 h,in vivo; Thymus,0.67 ± 0.21 %ID/g
same,tissue uptake at 3 h,in vivo; Thymus,0.52 ± 0.23 %ID/g
same,tissue uptake at 2 min,in vivo; Tumor,0.72 ± 0.31 %ID/g
same,tissue uptake at 0.25 h,in vivo; Tumor,3.75 ± 0.86 %ID/g
same,tissue uptake at 1 h,in vivo; Tumor,3.72 ± 0.36 %ID/g
same,tissue uptake at 2 h,in vivo; Tumor,2.06 ± 0.49 %ID/g
same,tissue uptake at 3 h,in vivo; Tumor,1.39 ± 0.32 %ID/g
same,tissue to tissue ratio at 2 min,in vivo; Tumor/blood ratio,0.02 ± 0.01
same,tissue to tissue ratio at 0.25 h,in vivo; Tumor/blood ratio,1.41 ± 0.4
same,tissue to tissue ratio at 1 h,in vivo; Tumor/blood ratio,4.6 ± 0.47
same,tissue to tissue ratio at 2 h,in vivo; Tumor/blood ratio,7.27 ± 0.76
same,tissue to tissue ratio at 3 h,in vivo; Tumor/blood ratio,4.58 ± 1.33
same,tissue to tissue ratio at 2 min,in vivo; Tumor/muscle ratio,0.79 ± 0.45
same,tissue to tissue ratio at 0.25 h,in vivo; Tumor/muscle ratio,4.23 ± 0.94
same,tissue to tissue ratio at 1 h,in vivo; Tumor/muscle ratio,10.1 ± 2.19
same,tissue to tissue ratio at 2 h,in vivo; Tumor/muscle ratio,11.3 ± 3.03
same,tissue to tissue ratio at 3 h,in vivo; Tumor/muscle ratio,8.2 ± 4.02
same,tissue uptake at 2 min,"in vivo; male, Adrenals",4.81 ± 2.58 %ID/g
same,tissue uptake at 0.25 h,"in vivo; male, Adrenals",2.6 ± 1.1 %ID/g
same,tissue uptake at 1 h,"in vivo; male, Adrenals",4.45 ± 2.03 %ID/g
same,tissue uptake at 3 h,"in vivo; male, Adrenals",3.8 ± 0.47 %ID/g
same,tissue uptake at 2 min,"in vivo; male, Bladder",1.72 ± 0.24 %ID/g
same,tissue uptake at 0.25 h,"in vivo; male, Bladder",24.1 ± 15.3 %ID/g
same,tissue uptake at 1 h,"in vivo; male, Bladder",39.5 ± 21.3 %ID/g
same,tissue uptake at 2 h,"in vivo; male, Bladder",22.6 ± 6.46 %ID/g
same,tissue uptake at 3 h,"in vivo; male, Bladder",58 ± 24.8 %ID/g
same,tissue uptake at 2 min,"in vivo; male, Brain",0.54 ± 0.15 %ID/g
same,tissue uptake at 0.25 h,"in vivo; male, Brain",0.1 ± 0.02 %ID/g
same,tissue uptake at 1 h,"in vivo; male, Brain",0.06 ± 0.01 %ID/g
same,tissue uptake at 2 h,"in vivo; male, Brain",0.06 ± 0.02 %ID/g
same,tissue uptake at 3 h,"in vivo; male, Brain",0.06 ± 0.02 %ID/g
same,tissue uptake at 0.25 h,"in vivo; male, Kidney",20.4 ± 3.7 %ID/g
same,tissue uptake at 1 h,"in vivo; male, Kidney",30.8 ± 4.37 %ID/g
same,tissue uptake at 2 h,"in vivo; male, Kidney",17.3 ± 12.9 %ID/g
same,tissue uptake at 2 min,"in vivo; male, Large intestine",0.25 ± 0.16 %ID/g
same,tissue uptake at 0.25 h,"in vivo; male, Large intestine",0.41 ± 0.11 %ID/g
same,tissue uptake at 3 h,"in vivo; male, Large intestine",0.18 ± 0.05 %ID/g
same,tissue uptake at 2 min,"in vivo; male, Pancreas",2.39 ± 0.72 %ID/g
same,tissue uptake at 0.25 h,"in vivo; male, Pancreas",2.5 ± 0.38 %ID/g
same,tissue uptake at 1 h,"in vivo; male, Pancreas",0.93 ± 0.03 %ID/g
same,tissue uptake at 2 h,"in vivo; male, Pancreas",0.3 ± 0.06 %ID/g
same,tissue uptake at 3 h,"in vivo; male, Pancreas",0.42 ± 0.02 %ID/g
same,tissue uptake at 2 min,"in vivo; male, Spleen",1.04 ± 0.23 %ID/g
same,tissue uptake at 0.25 h,"in vivo; male, Spleen",4.32 ± 1.31 %ID/g
same,tissue uptake at 1 h,"in vivo; male, Spleen",1.75 ± 0.21 %ID/g
same,tissue uptake at 2 h,"in vivo; male, Spleen",0.84 ± 0.17 %ID/g
same,tissue uptake at 3 h,"in vivo; male, Spleen",0.83 ± 0.07 %ID/g
same,tissue uptake at 2 min,"in vivo; male, Testicles",0.79 ± 0.07 %ID/g
same,tissue uptake at 0.25 h,"in vivo; male, Testicles",0.86 ± 0.12 %ID/g
same,tissue uptake at 1 h,"in vivo; male, Testicles",0.74 ± 0.2 %ID/g
same,tissue uptake at 2 h,"in vivo; male, Testicles",0.52 ± 0.17 %ID/g
same,tissue uptake at 3 h,"in vivo; male, Testicles",0.93 ± 0.5 %ID/g
same,blood pool activity cleared,in vivo,more than 90%
